Results on eleven molecules are retold here after ChEMBL document CHEMBL4359818, “Targeting dihydrofolate reductase: Design, synthesis and biological evaluation of novel 6-substituted pyrrolo[2,3-d]pyrimidines as nonclassical antifolates and as potential antitumor agents” (Eur J Med Chem, 2019).

Data set [1] deals with KB. Briefly: Antiproliferative activity against human KB cells in presence of adenosine. It counts as functional, cell-based.
Data set [2] relates to KB. Briefly: Antiproliferative activity against human KB cells in presence of AICA and thymidine. It counts as functional, cell-based.
For data set [3], the system named is KB. Briefly: Cell cycle arrest in human KB cells assessed as accumulation at S phase at 10 uM after 96 hrs by RNase-1 A/propidium iodide staining-based flow cytometric analysis (reference value: 48.26%). It counts as functional. A general note: Flow cytometry measures light scatter and fluorescence of single cells or particles in a stream.
The subject of data set [4] is SW-620. Kind of data set: Antiproliferative activity against human SW620 cells assessed as reduction in cell viability after 72 hrs by MTT assay. Type of data set: functional, cell-based. As to conditions: SW-620, 72 h. (Tetrazolium assays rely on reduction of a dye to a coloured formazan, in cell work by metabolically active cells.)
Data set [5] has as its system KB. Kind of data set: Antiproliferative activity against human KB cells in presence of AICA. It counts as functional, cell-based.
Data set [6] concerns KB. Briefly: Antiproliferative activity against human KB cells in presence of thymidine. Type of data set: functional, cell-based.
The subject of data set [7] is KB. Kind of data set: Cell cycle arrest in human KB cells assessed as accumulation at G2 phase at 10 uM after 96 hrs by RNase-1 A/propidium iodide staining-based flow cytometric analysis (reference value: 9.06%). Type of data set: functional.
Data set [8] deals with KB. Briefly: Cell cycle arrest in human KB cells assessed as accumulation at G1 phase at 10 uM after 96 hrs by RNase-1 A/propidium iodide staining-based flow cytometric analysis (reference value: 42.69%). Type of data set: functional.
Data set [9] relates to HUVEC. Kind of data set: Cytotoxicity against HUVEC assessed as reduction in cell viability after 72 hrs by MTT assay. Type of data set: cell-based. As to conditions: Homo sapiens.
Data set [10] has as its system KB. Briefly: Inhibition of colony formation in human KB cells at 100 nM after 10 to 14 days by methylene blue staining based assay. Type of data set: functional, cell-based.
Data set [11] relates to KB. Briefly: Antiproliferative activity against human KB cells at 0.01 to 1 uM in presence of adenosine. Type of data set: functional, cell-based.
Data set [12] deals with KB. Kind of data set: Inhibition of colony formation in human KB cells at 100 nM after 10 to 14 days by methylene blue staining based assay relative to untreated control. It counts as functional.
Data set [13] concerns A549. Briefly: Potency index, ratio of IC50 for pemetrexed to IC50 for test compound for antiproliferative activity against human A549 cells after 72 hrs by MTT assay. Type of data set: functional.
Data set [14] concerns the target T1, Dihydrofolate reductase (Homo sapiens, UniProt P00374).
T1 sequence (P00374 whole entry): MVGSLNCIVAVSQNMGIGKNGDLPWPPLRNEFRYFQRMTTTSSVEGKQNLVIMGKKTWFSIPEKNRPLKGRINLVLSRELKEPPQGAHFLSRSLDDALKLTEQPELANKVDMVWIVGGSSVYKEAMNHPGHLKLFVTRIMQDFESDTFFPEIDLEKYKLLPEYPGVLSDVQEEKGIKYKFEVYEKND
Kind of data set: Inhibition of recombinant human DHFR using dihydrofolic acid as substrate in presence of NADPH after 15 mins by microplate reader analysis.

Data set [15] relates to A549. Briefly: cells. Conditions: Homo sapiens, A549, 72 h.
Description: Antiproliferative activity against human A549 cells assessed as reduction in cell viability after 72 hrs by MTT assay
For data set [16], the system named is A549. Briefly: Potency index, ratio of IC50 for methotrexate to IC50 for test compound for antiproliferative activity against human A549 cells after 72 hrs by MTT assay. It counts as functional.
Data set [17] deals with KB. Kind of data set: Potency index, ratio of IC50 for pemetrexed to IC50 for test compound for antiproliferative activity against human KB cells after 72 hrs by MTT assay. It counts as functional.
Data set [18] in a line: Selectivity index, ratio of IC50 for HUVEC to IC50 for human KB cells. Type of data set: toxicity. Conditions: HUVEC and KB cells, read-out: Ratio IC50.
For data set [19], the system named is SW-620. Kind of data set: Potency index, ratio of IC50 for pemetrexed to IC50 for test compound for antiproliferative activity against human SW620 cells after 72 hrs by MTT assay. Type of data set: functional.
In data set [20] the test system is KB. Briefly: Antiproliferative activity against human KB cells at 0.01 to 1 uM in presence of AICA. Type of data set: functional, cell-based.
Data set [21] concerns KB. Kind of data set: Antiproliferative activity against human KB cells at 0.01 to 1 uM in presence of thymidine. Type of data set: functional, cell-based.
The test system of data set [22] is KB. Kind of data set: Antiproliferative activity against human KB cells assessed as reduction in cell viability after 72 hrs by MTT assay. It counts as functional, cell-based.
Data set [23] concerns KB. As to conditions: Homo sapiens, 10 nM.
Description: Inhibition of colony formation in human KB cells at 10 nM after 10 to 14 days by methylene blue staining based assay
Data set [24] deals with T2, Dihydrofolate reductase (Homo sapiens) (UniProt P00374).
T2 sequence (whole entry): T1 sequence (P00374 whole entry)
Kind of data set: Potency index, ratio of IC50 for methotrexate to test compound IC50 for inhibition of recombinant human DHFR.

Molecules are shown by their SMILES. The source made the active and inactive calls. The rule behind the calls is not given here.

What is called IC50 is the midpoint of a concentration-inhibition curve. What is called inhibition is the percentage by which the read-out fell short of the control. As for `Nc1nc2[nH]cc(CCc3ccc(C(=O)N[C@@H](CCC(=O)O)C(=O)O)cc3)c2c(=O)[nH]1` [PEMETREXED], the result in data set [1], in data set [2], in data set [5] and in [6] was inactive. Also, the results for the Activity in data set [3], in data set [7] and in [8] were 27.89%, 0% and 72.11%, respectively. Moreover, the IC50 was found to be 80.2 nM in data set [4] and 1730 nM in data set [9]. The inhibition entry in data set [10] is “Active”.

`Nc1nc2[nH]c(CCNC(=O)c3ccc(C(=O)NCc4ccncc4)cc3)cc2c(=O)[nH]1`: the result in data set [11], in data set [20] and in data set [21] was Active. The molecule also displayed an inhibition at 0.1 µM in [12] of 80%. The “Ratio IC50” value came out at 104 in data set [13], 81 in [16], 7 in data set [17] and 7 in [19]. Further, the IC50 came out at 49 nM in data set [14]; 15 nM in data set [4]; 12.1 nM in data set [15]; 8830 nM in data set [9]; 10.2 nM in [22]. In addition, the Activity in data set [3] came to 33.74%; in data set [7], 9.66%; in data set [8] it was 56.59%. Moreover, the selectivity ratio in data set [18] amounted to 867.

Regarding `Nc1nc2[nH]c(CCNC(=O)c3ccccc3C(=O)NCc3ccncc3)cc2c(=O)[nH]1`, the IC50 in data set [14] is at least 1000 nM; in data set [4] it was at least 1000 nM; in [15], at least 1000 nM; in data set [22] it was 89.9 nM. Further, in data set [10], the inhibition entry was “Active”.

As for `Nc1nc2[nH]c(CCNC(=O)c3ccccc3C(=O)NCc3cccnc3)cc2c(=O)[nH]1`, the IC50 in data set [14] was at least 1000 nM; in data set [4], at least 1000 nM; in data set [15] it was at least 1000 nM; in [22], 56.5 nM. For the same molecule, the inhibition result in data set [10] was “Active”.

For the molecule `Nc1nc2[nH]c(CCNC(=O)c3cccc(C(=O)NCc4cccnc4)c3)cc2c(=O)[nH]1`, the IC50 was 53.4 nM in data set [14], 154 nM in data set [4], at least 1000 nM in data set [15] and 88.8 nM in data set [22]. The inhibition result in data set [10] is “Active”.

On to `CN(Cc1cnc2nc(N)nc(N)c2n1)c1ccc(C(=O)N[C@@H](CCC(=O)O)C(=O)O)cc1` [METHOTREXATE], for which the inhibition result in [23] is “Active”. The IC50 in data set [4] came out at 13.1 nM; in data set [9], 6130 nM.

Take `Nc1nc2[nH]c(CCNC(=O)c3ccc(C(=O)NCc4ccccn4)cc3)cc2c(=O)[nH]1`: the result in data set [11], in data set [20] and in [21] was Active. In addition, the IC50 in data set [14] worked out at 29.3 nM; in data set [4], 15.2 nM; in data set [15] it was 18.9 nM; in data set [9] it was 5930 nM; in data set [22], 23 nM. Further, the Activity in data set [3] was determined as 24.75%; in data set [7] it was 9.33%; in data set [8] it was 65.92%. Besides, the selectivity ratio in data set [18] was 257. Further, in [10], the inhibition entry was “Active”.

With `Nc1nc2[nH]c(CCNC(=O)c3cccc(C(=O)NCc4ccncc4)c3)cc2c(=O)[nH]1`, the IC50 in data set [14] is 65.9 nM; in data set [4], 60.1 nM; in [15] it was at least 1000 nM; in data set [22], 25 nM. In addition, the inhibition result in [10] was “Active”.

`Nc1nc2[nH]c(CCNC(=O)c3cccc(C(=O)NCc4ccccn4)c3)cc2c(=O)[nH]1`: the IC50 in data set [14] is 9.28 nM; in data set [4], at least 1000 nM; in data set [15], at least 1000 nM; in data set [22], 102 nM. The Ratio IC50 in data set [24] turned out to be 2.6. Further, the inhibition entry in [10] is “Active”.

Regarding `Nc1nc2[nH]c(CCNC(=O)c3ccccc3C(=O)NCc3ccccn3)cc2c(=O)[nH]1`, the IC50 is at least 1000 nM in data set [14], at least 1000 nM in [4], at least 1000 nM in [15] and 90.5 nM in [22]. Further, in [10], the inhibition result was “Active”.

Regarding `Nc1nc2[nH]c(CCNC(=O)c3ccc(C(=O)NCc4cccnc4)cc3)cc2c(=O)[nH]1`, the outcome in [11], in data set [20] and in data set [21] was Active. Further, the IC50 worked out at 37.9 nM in data set [14]; 13.1 nM in data set [4]; 12.4 nM in data set [15]; 2970 nM in [9]; 11.2 nM in data set [22]. Moreover, the Activity was 55.36% in [3], 6.26% in data set [7] and 38.38% in data set [8]. For the same molecule, the selectivity ratio in data set [18] turned out to be 265. The inhibition result in data set [10] is “Active”.
